Measured values published in paper PMC12606624 (Journal of Chemical Information and Modeling, 2025).

Tests used:
[1] = tested on: monomeric RAD51 (His-RAD51[F86E, A89E]); test: Cross-linking with BS3 or EDAC, Coomassie blue SDS-PAGE and Western blot; type: binding; conditions: Coomassie blue-stained SDS-PAGE; BS3 1 mM, 1:1; EDAC 0.2% (w/v), 1:2
Description: For cross-linking with bis(sulfosuccinimidyl)-suberate (BS3), the purified His-RAD51[F86E, A89E] concentration was adjusted to 24 μM (=0.98 mg/mL). […] The mixture was incubated for 30 min at 20 °C on a thermoblock to allow for complex formation and then cross-linked with a final concentration of 1 mM BS3 (previously solubilized in PBS as a 50 mM stock). After 30 min at the same temperature, 4× Laemmli Sample Buffer (BioRad #1610747) was added to cross-linked samples and boiled at 95 °C for 5 min. […] The mixture was incubated for 1 h at 20 °C to allow for complex formation and then cross-linked with a final concentration of 0.2% (w/v) EDAC (previously solubilized in DMSO as a 10% w/v stock) for 1 h at the same temperature. 4× Laemmli Sample Buffer (BioRad #1610747) was then added to cross-linked samples and boiled at 95 °C for 5 min.
The efficiency of cross-linking reactions was evaluated through Coomassie blue staining and Western blot (WB) analysis. Prepared cross-linked samples were resolved using a 4–15% SDS-PAGE gel (Criterion TGX Precast Midi Protein Gel), which was stained using page blue protein staining solution (Thermo Fisher, 24620) according to manufacturer protocols. […] After three washes in TBS-T, chemiluminescence was detected using the Clarity Western ECL substrate (Biorad, #1705061), and images were recorded using a ChemiDoc MP Imaging System (Biorad). […]

[2] = tested on: monomeric His-RAD51 [F86E, A89E]; test: Static light scattering (SLS) binding test, SEC columns in tandem
Description: Static light scattering (SLS) analyses were performed on a Viscotek GPCmax/TDA (Malvern, UK) instrument, connected in tandem with a series of two TSKgel G3000PWxl size-exclusion chromatography columns (Tosoh Bioscience) as already described in ref . For all the experiments, the system was equilibrated with buffer containing 20 mM Hepes pH 8.00, 100 mM Na2SO4, and 5% glycerol. […] Data analysis was performed using Viscotek software, calibrating the instrument with Bovine Serum Albumin at 5 mg/mL. Data were exported as .csv files and regraphed using GraphPad Prism 10.

His-RAD51 [F86E, A89E] = test: Biolayer interferometry (BLI), bioBRC4 immobilized on Streptavidin biosensors; type: binding; conditions: 460, 230 and 115 nM His-RAD51 [F86E, two replicates, pH 8.00, 25 °C, 180 s association, 180 s dissociation
Description: Biolayer interferometry (BLI) experiments were performed by utilizing an Octet K2 system (Sartorius). All BLI experiments were carried out in an assay buffer containing 20 mM Hepes, pH 8.00, 100 mM Na2SO4, 5% glycerol, 0.05% Tween 20, 0.1% PEG8000, and 0.5 mM Sodium Deoxycholate. The following protocol was applied: 60 s baseline, 240 s loading, 240 s baseline, 180 s association, 180 s dissociation. For every step, shaking at 1000 rpm was enabled, and the temperature was set at 25 °C. Streptavidin Octet biosensors (18-5019, Sartorius) were initially dipped into assay buffer to record an initial baseline for 60 s. BioBRC4 was solubilized in 100% DMSO at a 2 mM concentration, diluted at a final 1 μM concentration in assay buffer, and then immobilized to the Streptavidin sensor through a 240 s loading step. After the loading stage, a second baseline of 240 s was recorded in wells containing only assay buffer to verify the stability of the signal and remove unbound peptide. […] Data were analyzed using Octet Analysis Studio 12.2 by subtracting, from recorded sensorgrams, the signals of both the reference well and reference sensors to remove the signals due to nonspecific binding. The recorded sensorgrams were corrected by aligning to the average of the second baseline steps and applying Savitzky–Golay filtering and interstep correction based on the second baseline step. […]

## Bio-Ahx-KEPTLLGFHTASGKKVKIAKESLDKVKNLFDEKEQ-COOH [bioBRC4, modified version of BRC4 harboring a biotin at the N-ter]
[1]
  cross-linking to monomeric RAD51, BS3 versus EDAC: BS3 cross-linked bioBRC4 to the monomeric RAD51 more effectively than EDAC
[2]; SLS and BLI (two orthogonal methods), SLS: RAD51 [F86E, A89E] 24 μM, 1 h at 25 °C, 4-fold excess peptide, 20 mM Hepes pH 8.00, 100 mM Na2SO4, 5% glycerol, 5% DMSO for BioBRC4
  binding to monomeric RAD51: confirmed the binding of bioBRC4 to monomeric RAD51
[2]; bioBRC4 vs BRC4, assessed from SLS and BLI (Figure S3)
  effect of biotin modification on binding to monomeric RAD51: did not negatively affect its binding to monomeric RAD51
His-RAD51 [F86E, A89E]
  binding to monomeric RAD51: showing the binding of monomeric His-
